Biological target: T1, vitamin D receptor derived from chick intestine (Gallus gallus, UniProt O42392)
T1 construct: vitamin D receptor derived from chick intestine; from tissue; host or cells: chick intestine
T1 sequence (O42392 1-451): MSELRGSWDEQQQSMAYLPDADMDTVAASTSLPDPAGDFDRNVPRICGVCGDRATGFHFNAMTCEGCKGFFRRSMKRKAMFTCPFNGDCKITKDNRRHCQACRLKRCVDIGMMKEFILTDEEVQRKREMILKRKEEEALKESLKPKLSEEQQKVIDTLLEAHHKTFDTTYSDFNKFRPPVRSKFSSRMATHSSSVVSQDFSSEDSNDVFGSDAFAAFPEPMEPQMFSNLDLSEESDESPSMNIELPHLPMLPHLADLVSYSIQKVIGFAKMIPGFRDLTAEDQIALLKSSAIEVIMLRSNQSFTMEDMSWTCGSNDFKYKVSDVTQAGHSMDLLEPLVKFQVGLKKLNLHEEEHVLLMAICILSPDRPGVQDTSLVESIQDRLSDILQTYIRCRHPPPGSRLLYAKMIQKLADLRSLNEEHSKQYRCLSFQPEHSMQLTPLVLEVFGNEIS
Test: Assay for binding to vitamin D receptor (VDR), radio receptor assay (RRA)
Settings: competition with 3H-1α,25-dihydroxyvitamin D3; test compound 1 to 100,000 nM; 4° C. for 3 hours; result in words only
Experimental: By the radio receptor assay (RRA), compounds 1a and 1b of the present invention were tested for their ability to bind to vitamin D receptor derived from chick intestine.
^3H-1α,25-dihydroxyvitamin D3 was dissolved in ethanol (20 μl) at a concentration of 10,000 dpm. Three test compounds, 1α,25-dihydroxyvitamin D3, compound la and compound 1b, were diluted with ethanol to give concentrations in the range of from 1 to 100,000 nM, respectively.
To each of small tubes, 20 μl of ^3H-1α,25 -dihydroxyvitamin D3 in solution and 50 μl of a test compound (i.e., 1α,25-dihydroxyvitamin D3, compound 1a or compound 1b) in solution were added. A solution of vitamin D receptor was prepared by dissolving 25 mg of VDR in 70 ml of 0.05M phosphate buffer solution containing 0.3 M KCl and 5 mM DTT (dithiothreitol) and 0.5 ml of the resulting solution was added to each tube, followed by mixing. […] To 0.5 ml of the supernatant, 5 ml of liquid scintillator was added for radioactivity measurement. The B/B0 value was calculated from the measurements (B: radioactivity measured in the presence of a test compound, B0: radioactivity measured in the absence of the test compound).

affinity for the vitamin D receptor (B/B0, FIG. 1): show affinity for the vitamin D receptor
Structure (SMILES): C=C1C(=CC=C2CCCC3(C)C2CCC3C(C)CCC(O)C(C)(C)O)CC(O)C(OCCCO)C1O [Compound 1a, (5Z,7E)-(1R,2R,3R,24S)-2-(3-hydroxypropoxy)-9,10-secocholesta-5,7,10(19)-triene-1,3,24,25-tetraol]

Source: patent US6538145B2, “24-hydroxy vitamin D derivatives” (Chugai Seiyaku Kabushiki Kaisha, priority 1998, dated 2003)
